Assay results published in ChEMBL document CHEMBL1136097, “Synthesis of the first examples of A-C8/C-C2 amide-Linked pyrrolo[2,1-c][1,4]benzodiazepine dimers” (Bioorg Med Chem Lett, 2003).

Experiments:
[1] = In vitro inhibitory activity against human tumor cell line CHIcis; assay type: functional
[2] = In vitro inhibitory activity against human tumor cell line CHI; assay type: functional
A2780cisR = assay: In vitro inhibitory activity against human tumor cell line A2780cis; assay type: functional, cell-based
A2780 = assay: In vitro inhibitory activity against human tumor cell line A2780; assay type: functional, cell-based
SK-OV-3 = assay: In vitro inhibitory activity against human tumor cell line SKOV-3; assay type: functional, cell-based

- IC50 [1]: > 25 µM
- IC50 [2]: > 25 µM
- IC50 (A2780cisR): > 25 µM
- IC50 (A2780): > 25 µM
- IC50 (SK-OV-3): > 25 µM
SMILES: COc1cc2c(cc1OC)C(=O)N1C=C(CC(=O)Nc3ccc4c(c3)N=C[C@@H]3CCCN3C4=O)C[C@H]1C=N2
